Source: patent publication US20230085307A1, “PYRIDAZINONE COMPOUND AND HERBICIDE” (NISSAN CHEMICAL CORPORATION, priority 2019, published 2023)

What was measured:
green foxtail [1] = experiment: Test Example 4: herbicidal effect by soil treatment (Table 19, symbol G); type: in vivo, green foxtail (Setaria viridis); details: amount of applied herbicide 320 g/ha
How it was run: (§1)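 Soil-surface application: an emulsion agent diluted with water to the predetermined dose is sprayed uniformly over seeds lying under roughly 1.5 cm of sterilized diluvial soil. Boxes stay in a greenhouse at 25° C. to 30° C. Three weeks later, each species is graded on previously defined criteria.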

persian speedwell [2] = experiment: Test Example 5: herbicidal effect by foliage application, plastic box (Table 20, symbol R); type: in vivo, Persian speedwell (Veronica persica); details: 320 g/ha, foliage application after 14-day growth, evaluated three weeks after application
How it was run: (§2)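 Sow seeds spot-wise in sterilized diluvial soil; cover with ~1.5 cm soil. Grow 14 days in greenhouse, 25° C. to 30° C. Spray foliage with emulsion diluted to predetermined amount. Rate effect after 3 weeks.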

Italian ryegrass [3] = experiment: Test Example 4: herbicidal effect by soil treatment (Table 19, symbol K); type: in vivo, Italian ryegrass (Lolium multiflorum); details: amount of applied herbicide 320 g/ha
How it was run: as §1

velvetleaf [4] = experiment: Test Example 4: herbicidal effect by soil treatment (Table 19, symbol M); type: in vivo, velvetleaf (Abutilon theophrasti); details: amount of applied herbicide 320 g/ha
How it was run: as §1

lambsquarters [5] = experiment: Test Example 5: herbicidal effect by foliage application, plastic box (Table 20, symbol O); type: in vivo, lambsquarters (Chenopodium album); details: 320 g/ha, foliage application after 14-day growth, evaluated three weeks after application
How it was run: as §2

blackgrass [6] = experiment: Test Example 5: herbicidal effect by foliage application, plastic box (Table 20, symbol J); type: in vivo, blackgrass (Alopecurus myosuroides); details: 320 g/ha, foliage application after 14-day growth, evaluated three weeks after application
How it was run: as §2

redroot pigweed [7] = experiment: Test Example 5: herbicidal effect by foliage application, plastic box (Table 20, symbol N); type: in vivo, redroot pigweed (Amaranthus retroflexus); details: 320 g/ha, foliage application after 14-day growth, evaluated three weeks after application
How it was run: as §2

velvetleaf [8] = experiment: Test Example 5: herbicidal effect by foliage application, plastic box (Table 20, symbol M); type: in vivo, velvetleaf (Abutilon theophrasti); details: 320 g/ha, foliage application after 14-day growth, evaluated three weeks after application
How it was run: as §2

persian speedwell [9] = experiment: Test Example 4: herbicidal effect by soil treatment (Table 19, symbol R); type: in vivo, Persian speedwell (Veronica persica); details: amount of applied herbicide 320 g/ha
How it was run: as §1

lambsquarters [10] = experiment: Test Example 4: herbicidal effect by soil treatment (Table 19, symbol O); type: in vivo, lambsquarters (Chenopodium album); details: amount of applied herbicide 320 g/ha
How it was run: as §1

green foxtail [11] = experiment: Test Example 5: herbicidal effect by foliage application, plastic box (Table 20, symbol G); type: in vivo, green foxtail (Setaria viridis); details: 320 g/ha, foliage application after 14-day growth, evaluated three weeks after application
How it was run: as §2

rice flat sedge = experiment: Test Example 3: herbicidal effect by foliage application, Wagner pot (Table 18, symbol E); type: in vivo, rice flat sedge (Cyperus iria); details: 320 g/ha
How it was run: (§3)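 Plants were sown in alluvial soil held under 0.1–0.5 cm standing water and grown 14 days in a greenhouse at 25–30 °C. An emulsifiable formulation, water-diluted to the set dose, was then sprayed onto the foliage, and effects were scored three weeks later using previously defined criteria.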

southern crabgrass [12] = experiment: Test Example 5: herbicidal effect by foliage application, plastic box (Table 20, symbol F); type: in vivo, southern crabgrass (Digitaria ciliaris); details: 320 g/ha, foliage application after 14-day growth, evaluated three weeks after application
How it was run: as §2

redroot pigweed [13] = experiment: Test Example 4: herbicidal effect by soil treatment (Table 19, symbol N); type: in vivo, redroot pigweed (Amaranthus retroflexus); details: amount of applied herbicide 320 g/ha
How it was run: as §1

windgrass [14] = experiment: Test Example 5: herbicidal effect by foliage application, plastic box (Table 20, symbol L); type: in vivo, windgrass (Apera spica-venti); details: 320 g/ha, foliage application after 14-day growth, evaluated three weeks after application
How it was run: as §2

southern crabgrass [15] = experiment: Test Example 4: herbicidal effect by soil treatment (Table 19, symbol F); type: in vivo, southern crabgrass (Digitaria ciliaris); details: amount of applied herbicide 320 g/ha
How it was run: as §1

wild oat [16] = experiment: Test Example 5: herbicidal effect by foliage application, plastic box (Table 20, symbol I); type: in vivo, wild oat (Avena fatua); details: 320 g/ha, foliage application after 14-day growth, evaluated three weeks after application
How it was run: as §2

barnyard grass [17] = experiment: Test Example 5: herbicidal effect by foliage application, plastic box (Table 20, symbol H); type: in vivo, barnyard grass (Echinochloa crus-galli); details: 320 g/ha, foliage application after 14-day growth, evaluated three weeks after application
How it was run: as §2

windgrass [18] = experiment: Test Example 4: herbicidal effect by soil treatment (Table 19, symbol L); type: in vivo, windgrass (Apera spica-venti); details: amount of applied herbicide 320 g/ha
How it was run: as §1

blackgrass [19] = experiment: Test Example 4: herbicidal effect by soil treatment (Table 19, symbol J); type: in vivo, blackgrass (Alopecurus myosuroides); details: amount of applied herbicide 320 g/ha
How it was run: as §1

chickweed [20] = experiment: Test Example 4: herbicidal effect by soil treatment (Table 19, symbol P); type: in vivo, common chickweed (Stellaria media); details: amount of applied herbicide 320 g/ha
How it was run: as §1

wild oat [21] = experiment: Test Example 4: herbicidal effect by soil treatment (Table 19, symbol I); type: in vivo, wild oat (Avena fatua); details: amount of applied herbicide 320 g/ha
How it was run: as §1

chickweed [22] = experiment: Test Example 5: herbicidal effect by foliage application, plastic box (Table 20, symbol P); type: in vivo, common chickweed (Stellaria media); details: 320 g/ha, foliage application after 14-day growth, evaluated three weeks after application
How it was run: as §2

barnyard grass [23] = experiment: Test Example 3: herbicidal effect by foliage application, Wagner pot (Table 18, symbol H); type: in vivo, barnyard grass (Echinochloa crus-galli); details: 320 g/ha
How it was run: as §3

Italian ryegrass [24] = experiment: Test Example 5: herbicidal effect by foliage application, plastic box (Table 20, symbol K); type: in vivo, Italian ryegrass (Lolium multiflorum); details: 320 g/ha, foliage application after 14-day growth, evaluated three weeks after application
How it was run: as §2

Chinese sprangletop = experiment: Test Example 3: herbicidal effect by foliage application, Wagner pot (Table 18, symbol D); type: in vivo, chinese sprangletop (Leptochloa chinensis); details: 320 g/ha
How it was run: as §3

barnyard grass [25] = experiment: Test Example 4: herbicidal effect by soil treatment (Table 19, symbol H); type: in vivo, barnyard grass (Echinochloa crus-galli); details: amount of applied herbicide 320 g/ha
How it was run: as §1

| SMILES | Herbicidal effect by soil treatment, G: green foxtail (green foxtail [1]) | herbicidal effect on R: persian speedwell (evaluation grade 0-5) (persian speedwell [2]) | Herbicidal effect by soil treatment, K: Italian ryegrass (Italian ryegrass [3]) | Herbicidal effect by soil treatment, M: velvetleaf (velvetleaf [4]) | herbicidal effect on O: lambsquarters (evaluation grade 0-5) (lambsquarters [5]) | herbicidal effect on J: blackgrass (evaluation grade 0-5) (blackgrass [6]) | herbicidal effect on N: redroot pigweed (evaluation grade 0-5) (redroot pigweed [7]) | herbicidal effect on M: velvetleaf (evaluation grade 0-5) (velvetleaf [8]) | Herbicidal effect by soil treatment, R: persian speedwell (persian speedwell [9]) | Herbicidal effect by soil treatment, O: lambsquarters (lambsquarters [10]) | herbicidal effect on G: green foxtail (evaluation grade 0-5) (green foxtail [11]) | herbicidal effect on rice flat sedge (E) (rice flat sedge) | herbicidal effect on F: southern crabgrass (evaluation grade 0-5) (southern crabgrass [12]) | Herbicidal effect by soil treatment, N: redroot pigweed (redroot pigweed [13]) | herbicidal effect on L: windgrass (evaluation grade 0-5) (windgrass [14]) | Herbicidal effect by soil treatment, F: southern crabgrass (southern crabgrass [15]) | herbicidal effect on I: wild oat (evaluation grade 0-5) (wild oat [16]) | herbicidal effect on H: barnyard grass (evaluation grade 0-5) (barnyard grass [17]) | Herbicidal effect by soil treatment, L: windgrass (windgrass [18]) | Herbicidal effect by soil treatment, J: blackgrass (blackgrass [19]) | also measured |
| --- | --- | --- | --- | --- | --- | --- | --- | --- | --- | --- | --- | --- | --- | --- | --- | --- | --- | --- | --- | --- | --- |
| CCCOc1ccc(-c2sc3c(Cl)cccc3c2-c2c(O)c(C)nn(C)c2=O)cc1 [4-027] | 0 (Herbicidal rate of 5% or less (almost no effect)) | 5 (Herbicidal rate of 90% or more (almost completely withered)) | 0 (Herbicidal rate of 5% or less (almost no effect)) | 0 (Herbicidal rate of 5% or less (almost no effect)) | 5 (Herbicidal rate of 90% or more (almost completely withered)) | 3 (Herbicidal rate of 40% or more and less than 70%) | 5 (Herbicidal rate of 90% or more (almost completely withered)) | 4 (Herbicidal rate of 70% or more and less than 90%) | 1 (Herbicidal rate of 5% or more and less than 20%) | 2 (Herbicidal rate of 20% or more and less than 40%) | 0 (Herbicidal rate of 5% or less (almost no effect)) | 0 (Herbicidal rate of 5% or less (almost no effect)) | 0 (Herbicidal rate of 5% or less (almost no effect)) | 4 (Herbicidal rate of 70% or more and less than 90%) | 3 (Herbicidal rate of 40% or more and less than 70%) | 0 (Herbicidal rate of 5% or less (almost no effect)) | 0 (Herbicidal rate of 5% or less (almost no effect)) | 4 (Herbicidal rate of 70% or more and less than 90%) | 0 (Herbicidal rate of 5% or less (almost no effect)) | 0 (Herbicidal rate of 5% or less (almost no effect)) | Herbicidal effect by soil treatment, P: chickweed (chickweed [20]): 5 (Herbicidal rate of 90% or more (almost completely withered)); Herbicidal effect by soil treatment, I: wild oat (wild oat [21]): 0 (Herbicidal rate of 5% or less (almost no effect)); herbicidal effect on P: chickweed (evaluation grade 0-5) (chickweed [22]): 5 (Herbicidal rate of 90% or more (almost completely withered)); herbicidal effect on barnyard grass (H) (barnyard grass [23]): 5 (Herbicidal rate of 90% or more (almost completely withered)); herbicidal effect on K: Italian ryegrass (evaluation grade 0-5) (Italian ryegrass [24]): 1 (Herbicidal rate of 5% or more and less than 20%); herbicidal effect on Chinese sprangletop (D) (Chinese sprangletop): 0 (Herbicidal rate of 5% or less (almost no effect)); Herbicidal effect by soil treatment, H: barnyard grass (barnyard grass [25]): 0 (Herbicidal rate of 5% or less (almost no effect)) |
| COc1cc(F)ccc1-c1sc2c(Cl)cccc2c1-c1c(O)c(C)nn(C)c1=O [4-033] | 0 (Herbicidal rate of 5% or less (almost no effect)) | 5 (Herbicidal rate of 90% or more (almost completely withered)) | 0 (Herbicidal rate of 5% or less (almost no effect)) | 0 (Herbicidal rate of 5% or less (almost no effect)) | 0 (Herbicidal rate of 5% or less (almost no effect)) | 0 (Herbicidal rate of 5% or less (almost no effect)) | 2 (Herbicidal rate of 20% or more and less than 40%) | 3 (Herbicidal rate of 40% or more and less than 70%) | 4 (Herbicidal rate of 70% or more and less than 90%) | 0 (Herbicidal rate of 5% or less (almost no effect)) | 0 (Herbicidal rate of 5% or less (almost no effect)) | 3 (Herbicidal rate of 40% or more and less than 70%) | 0 (Herbicidal rate of 5% or less (almost no effect)) | 2 (Herbicidal rate of 20% or more and less than 40%) | 1 (Herbicidal rate of 5% or more and less than 20%) | 0 (Herbicidal rate of 5% or less (almost no effect)) | 0 (Herbicidal rate of 5% or less (almost no effect)) | 3 (Herbicidal rate of 40% or more and less than 70%) | 0 (Herbicidal rate of 5% or less (almost no effect)) | 0 (Herbicidal rate of 5% or less (almost no effect)) | Herbicidal effect by soil treatment, P: chickweed (chickweed [20]): 4 (Herbicidal rate of 70% or more and less than 90%); Herbicidal effect by soil treatment, I: wild oat (wild oat [21]): 0 (Herbicidal rate of 5% or less (almost no effect)); herbicidal effect on P: chickweed (evaluation grade 0-5) (chickweed [22]): 5 (Herbicidal rate of 90% or more (almost completely withered)); herbicidal effect on barnyard grass (H) (barnyard grass [23]): 4 (Herbicidal rate of 70% or more and less than 90%); herbicidal effect on K: Italian ryegrass (evaluation grade 0-5) (Italian ryegrass [24]): 0 (Herbicidal rate of 5% or less (almost no effect)); herbicidal effect on Chinese sprangletop (D) (Chinese sprangletop): 2 (Herbicidal rate of 20% or more and less than 40%); Herbicidal effect by soil treatment, H: barnyard grass (barnyard grass [25]): 0 (Herbicidal rate of 5% or less (almost no effect)) |
